From patent publication US4604380A, “C-23-substituted mycaminosyltylonolide compounds, pharmaceutical compositions and methods of use” (Eli Lilly and Company, priority 1985, dated 1986)
In brackets after ≈: the same amount, converted by molar mass. Several values for one entry are separate records, joined by “and”; a condition that tells them apart may be missing. Equal entries are not always repeated. Where two headings read alike, the source gives them in different places.

Key:
[1] = tested on: Streptococcus pneumoniae Park I; test: microbe, parasite or virus in culture; format: cell-based
Experimental: (§1) The MIC's s in Table III were determined by standard agar-dilution assays. The MIC's in Table IV were obtained using a conventional broth-dilution microtiter test.

[2] = tested on: Staphylococcus aureus; test: ED50 vs. Staphylococcus aureus experimental infection in mice (Table V); format: in vivo; conditions: sc, subcutaneous, two doses, dose protecting 50% of animals, read-out: ED50 Subcutaneous
Experimental: (§2) Certain formula 1a compounds have also shown in vivo antimicrobial activity against experimental bacterial infections. When two doses of test compound were administered to mice in experimental infections, the activity observed was measured as an ED50 value [effective dose in mg/kg to protect 50% of the test animals: see Warren Wick, et al., J. Bacteriol. 81, 233-235 (1961)].

[3] = tested on: Streptococcus Group D 2041; test: MIC, standard agar-dilution assay (Table III); format: cell-based; conditions: GROUPD2041
Experimental: as §1

[4] = tested on: Staphylococcus epidermidis 222; test: MIC, standard agar-dilution assay (Table III); format: cell-based
Experimental: as §1

[5] = tested on: Haemophilus influenzae 76; test: MIC, standard agar-dilution assay (Table III); format: cell-based; conditions: agar dilution; Haemophilus influenzae 76, ampicillin-resistant strain; read-out: MIC
Experimental: as §1

[6] = tested on: Staphylococcus epidermidis EPI1; test: MIC, standard agar-dilution assay (Table III); format: cell-based
Experimental: as §1

[7] = tested on: Streptococcus pyogenes C203; test: MIC, standard agar-dilution assay (Table III); format: cell-based; conditions: agar dilution; Streptococcus pyogenes C203; read-out: MIC
Experimental: as §1

[8] = tested on: Staphylococcus aureus S13E; test: MIC, standard agar-dilution assay (Table III); format: cell-based
Experimental: as §1

[9] = tested on: Streptococcus Group D X66; test: MIC, standard agar-dilution assay (Table III); format: cell-based
Experimental: as §1

[10] = tested on: Haemophilus influenzae C.L.; test: MIC, standard agar-dilution assay (Table III); format: cell-based; conditions: agar dilution; Haemophilus influenzae C.L., ampicillin-sensitive strain; read-out: MIC
Experimental: as §1

[11] = tested on: Staphylococcus aureus V41; test: MIC, standard agar-dilution assay (Table III); format: cell-based; conditions: Staphylococcus aureus V41, penicillin-resistant strain
Experimental: as §1

[12] = tested on: Staphylococcus aureus X1.1; test: MIC, standard agar-dilution assay (Table III); format: cell-based
Experimental: as §1

[13] = tested on: Staphylococcus aureus X400; test: MIC, standard agar-dilution assay (Table III); format: cell-based
Experimental: as §1

[14] = tested on: Mycoplasma hyorhinis 29E; test: MIC, conventional broth-dilution microtiter test (Table IV); format: cell-based
Experimental: as §1

[15] = tested on: Mycoplasma gallisepticum 36H; test: as above; format: cell-based; conditions: Mycoplasmoides gallisepticum
Experimental: as §1

[16] = tested on: Pasteurella multocida 40G; test: as above; format: cell-based; conditions: broth-dilution microtiter; Pasteurella multocida 40G; read-out: MIC
Experimental: as §1

[17] = tested on: Mycoplasma hyopneumoniae S5972; test: as above; format: cell-based; conditions: Mesomycoplasma hyopneumoniae
Experimental: as §1

[18] = tested on: Pasteurella hemolytica 41D; test: as above; format: cell-based; conditions: broth-dilution microtiter; Pasteurella hemolytica 41D; read-out: MIC
Experimental: as §1

[19] = tested on: Pasteurella hemolytica 22C; test: as above; format: cell-based
Experimental: as §1

[20] = tested on: Pasteurella multocida 22A; test: as above; format: cell-based; conditions: broth-dilution microtiter; Pasteurella multocida 22A; read-out: MIC
Experimental: as §1

[21] = tested on: Mycoplasma synoviae 40A; test: as above; format: cell-based; conditions: Mycoplasmopsis synoviae
Experimental: as §1

[22] = tested on: Pasteurella multocida 17E; test: as above; format: cell-based; conditions: broth-dilution microtiter; Pasteurella multocida 17E, bovine isolate; read-out: MIC
Experimental: as §1

[23] = tested on: Pasteurella hemolytica 23C; test: as above; format: cell-based; conditions: broth-dilution microtiter; Pasteurella hemolytica 23C; read-out: MIC
Experimental: as §1

[24] = tested on: Bordetella bronchisepticum 95B; test: as above; format: cell-based
Experimental: as §1

[25] = tested on: Streptococcus sp. 19F; test: as above; format: cell-based
Experimental: as §1

[26] = tested on: Mycoplasma gallisepticum 29C; test: as above; format: cell-based; conditions: Mycoplasmoides gallisepticum
Experimental: as §1

[27] = tested on: Staphylococcus aureus 19C; test: as above; format: cell-based; conditions: broth-dilution microtiter; Staphylococcus aureus 19C; read-out: MIC
Experimental: as §1

[28] = tested on: Pasteurella multocida 60A; test: as above; format: cell-based; conditions: broth-dilution microtiter; Pasteurella multocida 60A, avian isolate; read-out: MIC
Experimental: as §1

[29] = tested on: Pasteurella multocida 68C; test: as above; format: cell-based; conditions: broth-dilution microtiter; Pasteurella multocida 68C; read-out: MIC
Experimental: as §1

[30] = tested on: Pasteurella multocida; test: Activity in Pasteurella multocida-infected one-day-old chicks (Table VIII); format: in vivo; conditions: subcutaneous 30 mg/kg × 2, 1 and 4 hours post-challenge, all non-medicated chicks died within 24 hours
Experimental: Table VIII summarizes the results of tests in which illustrative compounds were evaluated against a Pasteurella infection in one-day-old chicks. The compounds were administered parenterally after challenge of the chicks with Pasteurella multocida (0.1 mL of a 10^-4 dilution of a twenty-hour tryptose broth culture of an avian P. multocida given subcutaneously). In these tests, all non-medicated infected chicks died within 24 hours of Pasteurella challenge. In the tests summarized in Table VIII, the compounds were administered by subcutaneous injection at a dosage of 30 mg/kg, 1 and 4 hours post-challenge of the chicks with P. multocida.

[31] = tested on: Streptococcus pyogenes; test: ED50 vs Streptococcus pyogenes experimental infection in mice (Table VI); format: in vivo; conditions: two doses, several values = results from more than one test
Experimental: as §2

[32] = tested on: Streptococcous pneumoniae; test: ED50 vs. Streptococcous pneumoniae experimental infection in mice (Table VII); format: in vivo; conditions: Mus musculus, sc, subcutaneous, two doses, read-out: ED50 Subcutaneous
Experimental: as §2

[33] = tested on: Mycoplasma gallisepticum 15E; test: MIC, conventional broth-dilution microtiter test (Table IV); format: cell-based; conditions: Mycoplasmoides gallisepticum; broth-dilution microtiter; Mycoplasma gallisepticum 15E; read-out: MIC
Experimental: as §1

[34] = agar dilution, Staphylococcus epidermidis 222, read-out: MIC
[35] = Staphylococcus epidermidis, EPI1
[36] = broth-dilution microtiter, Pasteurella hemolytica 22C, read-out: MIC
[37] = agar dilution, Streptococcus Group D 2041, read-out: MIC
[38] = agar dilution, Streptococcus Group D X66, read-out: MIC
[39] = broth-dilution microtiter, Mycoplasma gallisepticum 36H, read-out: MIC

| SMILES | ED50 [2] [mg/kg] | MIC [4, 34] [µg/mL] | MIC [5] [µg/mL] | MIC [7] [µg/mL] | MIC [8] [µg/mL] | MIC [10] [µg/mL] | MIC [11] [µg/mL] | MIC [12] [µg/mL] | MIC [16] [µg/mL] | MIC [18] [µg/mL] | MIC [20] [µg/mL] | MIC [22] [µg/mL] | MIC [23] [µg/mL] | MIC [24] [µg/mL] | MIC [25] [µg/mL] | MIC [27] [µg/mL] | MIC [28] [µg/mL] | MIC [29] [µg/mL] | ED50 ([31]; po, read-out: ED50 Oral) [mg/kg] | ED50 [32] [mg/kg] | further results |
| --- | --- | --- | --- | --- | --- | --- | --- | --- | --- | --- | --- | --- | --- | --- | --- | --- | --- | --- | --- | --- | --- |
| CCC1OC(=O)CC(O)C(C)C(OC2OC(C)C(O)C(N(C)C)C2O)C(CC=O)CC(C)C(=O)C=CC(C)=CC1CN1CC2(C)CC1CC(C)(C)C2 (centres unmarked) [Compound 23, 23-deoxy-23-(1,3,3-trimethyl-6-azabicyclo[3.2.1]octan-6-yl)-OMT] | 3.79 | 0.125 (≈ 0.171 µM) | 1 (≈ 1.36 µM) | 0.25 (≈ 0.341 µM) | 0.5 (≈ 0.682 µM) | 2 (≈ 2.73 µM) | 0.5 (≈ 0.682 µM) | 0.5 (≈ 0.682 µM) | 0.78 (≈ 1.06 µM) | 1.56 (≈ 2.13 µM) | 0.39 (≈ 0.532 µM) | 0.78 (≈ 1.06 µM) | 1.56 (≈ 2.13 µM) | 12.5 (≈ 17.1 µM) | < 0.048 | 1.56 (≈ 2.13 µM) | 1.56 (≈ 2.13 µM) | 0.78 (≈ 1.06 µM) | 100 | 3.6 | MIC ([1]; Streptococcus pneumoniae, read-out: MIC): 0.06 µg/mL (≈ 0.0819 µM); MIC [3]: 0.5 µg/mL (≈ 0.682 µM); MIC [6, 35]: 0.5 µg/mL (≈ 0.682 µM); MIC [9]: 0.5 µg/mL (≈ 0.682 µM); MIC ([13]; Staphylococcus aureus, X400): 0.5 µg/mL (≈ 0.682 µM); MIC ([14]; broth-dilution microtiter, Mycoplasma hyorhinis 29E, read-out: MIC): 1.56 µg/mL (≈ 2.13 µM); MIC ([15]; 36H): 3.12 µg/mL (≈ 4.26 µM); MIC ([17]; S5972): 0.048 µg/mL (≈ 0.0655 µM); MIC [19, 36]: 1.56 µg/mL (≈ 2.13 µM); MIC ([21]; 40A): < 0.048 µg/mL; MIC ([26]; 29C): < 0.048 µg/mL; Number of Deaths/Number Treated [30]: 10/10 |
| CCC1OC(=O)CC(O)C(C)C(OC2OC(C)C(O)C(N(C)C)C2O)C(CC=O)CC(C)C(=O)C=CC(C)=CC1CN1C2CCCCC2C2CCCCC21 (centres unmarked) [Compound 25, 23-deoxy-23-(dodecahydro-9H--carbazol-9-yl)-OMT] | 7.69 | – | 1 (≈ 1.32 µM) | 0.25 (≈ 0.329 µM) | 0.5 (≈ 0.659 µM) | 4 (≈ 5.27 µM) | 0.5 (≈ 0.659 µM) | 0.5 (≈ 0.659 µM) | 1.56 (≈ 2.06 µM) | 1.56 (≈ 2.06 µM) | 1.56 (≈ 2.06 µM) | 1.56 (≈ 2.06 µM) | 1.56 (≈ 2.06 µM) | 25 (≈ 32.9 µM) | < 0.048 | 0.78 (≈ 1.03 µM) | 1.56 (≈ 2.06 µM) | 1.56 (≈ 2.06 µM) | 63 | > 10 | MIC ([1]; agar dilution, Streptococcus pneumoniae Park I, read-out: MIC): 0.125 µg/mL (≈ 0.165 µM); MIC [3, 37]: 0.5 µg/mL (≈ 0.659 µM); MIC ([4]; Staphylococcus epidermidis, 222): 0.25 µg/mL (≈ 0.329 µM); MIC ([6]; agar dilution, Staphylococcus epidermidis EPI1, read-out: MIC): 0.5 µg/mL (≈ 0.659 µM); MIC [9, 38]: 0.5 µg/mL (≈ 0.659 µM); MIC ([13]; agar dilution, Staphylococcus aureus X400, methicillin-resistant strain, read-out: MIC): 1 µg/mL (≈ 1.32 µM); MIC ([14]; Mycoplasma, 29E): < 0.048 µg/mL; MIC [15, 39]: 50 µg/mL (≈ 65.9 µM); MIC ([17]; broth-dilution microtiter, Mycoplasma hyopneumoniae S5972, read-out: MIC): < 0.012 µg/mL; MIC [19, 36]: 3.12 µg/mL (≈ 4.11 µM); MIC [33]: 50 µg/mL (≈ 65.9 µM); MIC ([21]; 40A): < 0.048 µg/mL; MIC ([26]; broth-dilution microtiter, Mycoplasma gallisepticum 29C, read-out: MIC): 0.097 µg/mL (≈ 0.128 µM); ED50 ([31]; sc, subcutaneous, read-out: ED50 Subcutaneous): 7.43 mg/kg; ED50 Subcutaneous ([31]; subcutaneous): > 10 mg/kg × 2 |
| CCC1OC(=O)CC(O)C(C)C(OC2OC(C)C(O)C(N(C)C)C2O)C(CC=O)CC(C)C(=O)C=CC(C)=CC1CN1CCCC12CCCCC2 (centres unmarked) [Compound 31, 23-deoxy-23-(1-azaspiro[4.5]decan-1-yl)-OMT] | 2.15 | 0.25 (≈ 0.348 µM) | 2 (≈ 2.78 µM) | 0.125 (≈ 0.174 µM) | 0.5 (≈ 0.695 µM) | 2 (≈ 2.78 µM) | 0.5 (≈ 0.695 µM) | 0.5 (≈ 0.695 µM) | 0.195 (≈ 0.271 µM) | 0.39 (≈ 0.542 µM) | 0.39 (≈ 0.542 µM) | 0.39 (≈ 0.542 µM) | 0.39 (≈ 0.542 µM) | 6.25 (≈ 8.69 µM) | < 0.048 | 0.39 (≈ 0.542 µM) | 0.39 (≈ 0.542 µM) | 0.39 (≈ 0.542 µM) | 59.5 | 9.22 | MIC ([1]; Streptococcus pneumoniae): 0.03 µg/mL (≈ 0.0417 µM); MIC [3, 37]: 0.25 µg/mL (≈ 0.348 µM); MIC [6, 35]: 0.5 µg/mL (≈ 0.695 µM); MIC [9, 38]: 0.25 µg/mL (≈ 0.348 µM); MIC ([13]; Staphylococcus aureus, X400): 0.5 µg/mL (≈ 0.695 µM); MIC [15, 39]: 50 µg/mL (≈ 69.5 µM); MIC ([17]; S5972): 0.097 µg/mL (≈ 0.135 µM); MIC ([19]; Pasteurella, 22C): 0.78 µg/mL (≈ 1.08 µM); MIC [33]: 50 µg/mL (≈ 69.5 µM); MIC ([21]; broth-dilution microtiter, Mycoplasma synoviae 40A, read-out: MIC): 0.195 µg/mL (≈ 0.271 µM); MIC ([26]; 29C): 0.097 µg/mL (≈ 0.135 µM); Number of Deaths/Number Treated [30]: 0/10 and 3/10 |
